# Patent US4693977A, “Enzyme immobilization for producing cephalosporin antibiotics” (Queen's University at Kingston, priority 1986, dated 1987)
# Several values for one entry are separate records, joined by “and”; a condition that tells them apart may be missing. Equal values may be shown once.
# Experiments:
# [1] = system: cyclase, epimerase and ring expansion enzyme from a cell-free extract of S. clavuligerus; experiment: Cyclization / ring expansion of peptides with enzymes of S. clavuligerus cell-free extract (SPCFX); format: biochemical
# Protocol: (§1) Cyclization activity of enzyme preparations was measured in reaction mixtures containing: bis-δ-(L-α-amino-adipyl-L-cysteinyl-D-valine) (ACV)2 0.306 mM, […] 4 mM, Na ascorbate 2.8 mM, FeSO4 45 μM, tris-HCl buffer 0.05M, pH 7.0, enzyme preparation 0.03-0.3 ml, final volume 0.4 ml. Reaction mixtures were incubated at 20° C. for up to 4 hours and stopped by cooling on ice or by the addition of 0.4 ml methanol.
# (§2) Ring expansion activity was followed using the cyclization assay system described above but supplemented with ATP 0.5 mM, α-ketoglutarate 1 mM, KCl 7.5 mM, and MgSO4 7.5 mM. Total volume and incubation conditions were the same as for the cyclization assay.
# (§3) To 0.4 ml of reaction mixture were added 0.9 mM of ACV dimer as produced in Example 4, 50.0 mM Tris-HCl pH 7.0 buffer and a mixture of the three enzymes as produced in Example 1 from a cell-free extract of S. clavuligerus, together with 45.0 μM ferrous sulfate and 2.8 mM ascorbic acid as optimized amounts of essential co-factors. DTT was added in excess of the amount required to reduce ACV dimer to ACV monomer. The reaction was continued for approximately 2 hours at 20° C. and then terminated by addition of 0.4 ml methanol to precipitate protein.
# (§4) The procedures of Example 7 were repeated using L-aspartyl, L-glutamyl, D-α-aminoadipyl, adipyl, glycyl-L-α-aminoadipyl and N-acetyl-L-α-aminodipyl-containing peptides. […] A prokaryotic system is, therefore, required. Modification of the valinyl moiety, as noted above, has been considered in detail. Substrates modified in the valinyl moiety such as: [drawing 17] where R1 is H, a lower alkyl or functionalized carboxylic group; and R2 is H or a lower alkyl group may be cyclized with carbon-sulfur bond formation with retention of configuration at the beta carbon of the valine analog, leading to isopenicillin N analogs of the type: [drawing 18] Following epimerization to penicillin N analogs of the type: [drawing 19] ring expansion leads to cephalosporin analogs of the type: with transfer of the beta carbon atom attached to C2 of (11) into C2 of the six membered ring.
# (§5) Methanol inactivated reaction mixtures (from Examples 7 and 8) were centrifuged at 12,000×g for 5 min to remove precipitated protein before analysis. Reaction mixtures from Example 9 were examined directly. The chromatographic equipment used was: M-6000A pump, UK-6 injector, M-480 variable wavelength director, M-420 data module and Bondapak-C18 column (Rad Pak A in a Z module) as stationary phase. All equipment was from Waters Scientific Co., Mississauga, Ontario. The mobile phase consisted of methanol/0.05 M potassium phosphate buffer, pH 4.0 (5/95). The methanol content of the mobile phase depended upon the particular separation and the source of the material e.g. Examples 7 and 8 or Example 9. A short precolumn (packed with Bondapak C18 /Corasil) was used to guard the main column. UV-absorbing material was detected at 220 nm at a sensitivity of 0.02 AUFS.
# [2] = target: T1, cyclase, epimerase and ring expansion enzyme from a cell-free extract of S. clavuligerus (Streptomyces clavuligerus, UniProt P10621); experiment: as above; format: biochemical
# T1 construct: from a cell-free extract of S. clavuligerus; endogenous in cells; host or cells: Streptomyces clavuligerus (cell-free extract / salt-precipitated cell-free extract)
# T1 sequence (P10621 1-329): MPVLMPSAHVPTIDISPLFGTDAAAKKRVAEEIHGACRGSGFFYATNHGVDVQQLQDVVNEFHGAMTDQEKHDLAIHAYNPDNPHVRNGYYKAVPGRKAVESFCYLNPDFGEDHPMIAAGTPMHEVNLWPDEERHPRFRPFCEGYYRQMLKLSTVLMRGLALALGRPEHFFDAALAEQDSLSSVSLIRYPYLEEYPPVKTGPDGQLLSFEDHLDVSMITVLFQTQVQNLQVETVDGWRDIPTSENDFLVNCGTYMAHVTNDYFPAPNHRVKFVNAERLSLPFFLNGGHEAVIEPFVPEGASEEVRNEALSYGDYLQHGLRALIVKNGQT
# Protocol: as §1, §2, §3, §4, §5
# [3] = system: E. coli Ess + penicillinase; experiment: Agar diffusion bioassay of ring expansion reaction mixtures, plates with penicillinase; format: cell-based, Escherichia coli; settings: for Zone of Inhibition, E. coli Ess + penicillinase: SPCFX, 2h at 20° C., 20 μl; for Cephalosporin C "equivalents" / Zone of Inhibition: immobilized enzyme reactor reaction mixture
# Protocol: (§6) 2 ml of the reaction mixture was applied to the immobilized enzyme reactor by means of a peristaltic pump operating at 40 ml/h. Effluent was collected into a 13×100 mm test tube from which the original reaction mixture was pumped, and therefore was recycled continuously through the enzyme reactor. The enzyme reactor was operated at 21° C. and 20 μl aliquots were removed at 15 minute time intervals for analysis for antibiotic formation. (Table I).
# (§7) Antibiotic in reaction mixtures was estimated by the agar diffusion method. Cyclization reaction mixtures were bioassayed using Micrococcus luteus ATCC. 9341 and Escherichia coli Ess as indicator organisms. Ring expansion reaction mixtures were bioassayed using E. coli Ess as indicator organism in agar plates supplemented with penicillinase at 2×10^5 units/ml
# (§8) The procedure of Example 7 was repeated with ACV analogs in which valine was replaced by alpha-aminobutyric acid (R1 =R2 =H) and allo-isoleucine (R1 =H, R2 =C2 H5), as follows: (AC-aminobutyrate)2 (ACAB)2 and (AC-alloisoleucine)2 (ACI)2 were dissolved in water, neutralized, and lyophilized in 0.1 and 1.0 mg amounts. These peptides were then used as substrates in cyclization and ring expansion assays as follows: One hundred micrograms of (ACV)2 from Example 6 was used as substrate in a cyclization and a ring expansion assay system using 0.1 ml of salt-precipitated cell-free extract as enzyme source in each case. (Final concentration of (ACV)2 is 0.306 mM). Identical cyclization and ring expansion assays were set up in which 100 μg (ACAB)2 or 1.0 mg (ACI)2 replaced the (ACV)2 as substrate and 0.3 ml of salt precipitated cell-free extract was used as enzyme source. No substrate controls were also prepared. The reaction mixtures were incubated for 2h at 20° C. At the end of incubation 20 μl amounts of the cyclization reaction mixtures were bioassayed versus M. luteus and E. coli Ess; 20 μl amounts of the ring expansion reaction mixtures were bioassayed versus E. coli Ess plus and minus penicillinase.
# [4] = system: Micrococcus luteus ATCC. 9341; experiment: Agar diffusion bioassay of cyclization reaction mixtures versus M. luteus; format: cell-based; settings: cyclization reaction mixture, SPCFX, 2h at 20° C., 20 μl
# Text: as §7, §8
# Escherichia coli Ess = experiment: Agar diffusion bioassay of reaction mixtures versus E. coli Ess; format: cell-based; settings: for Zone of Inhibition, E. coli Ess: SPCFX, 2h at 20° C., 20 μl
# Text: as §7, §8
# [5] = target: T2, immobilized SPCFX (cyclase, epimerase, ring expansion enzyme) on DEAE Trisacryl (Streptomyces clavuligerus, UniProt P10621); experiment: Conversion of ACV on immobilized SPCFX column (immobilized enzyme reactor), HPLC; format: biochemical; settings: 1 mg ACV, cycled 1.5 hours at 40 ml per hour through 2 ml immobilized SPCFX
# T2 construct: Cell-free extracts were prepared by washing 40-48 h cells of S. clavuligerus; endogenous in cells
# T2 sequence (P10621 1-329): T1 sequence (P10621 1-329)
# Protocol: DEAE-Trisacryl® resin was loaded into a column 0.4×5.8 cm (packed bed volume, 1 ml), washed with 3×2 ml of the same EDTA buffer, and allowed to drain to dryness by gravity. One milliliter of the salt-precipitated cell-free extract above was applied to the column. The effluent was collected and reapplied to the column twice to ensure complete enzyme loading. The column was washed with 2×1 ml of the same EDTA buffer, drained dry and centrifuged for 3 min. at 500×g to remove excess buffer. This immobilized enzyme reactor was stored at 4° C. when not in use.
# as §6
# Methanol inactivated reaction mixtures (from Examples 7 and 8) were centrifuged at 12,000×g for 5 min to remove precipitated protein before analysis. Reaction mixtures from Example 9 were examined directly. […] UV-absorbing material was detected at 220 nm at a sensitivity of 0.02 AUFS. […]
# [6] = ring expansion reaction mixture
# [7] = mixture of the three enzymes, approx. 2 hours at 20° C., without alpha-ketoglutarate
smiles,measurement,setting,value
CC(=O)N[C@@H](CCCC(=O)N[C@@H](CS)C(=O)N[C@@H](C(=O)O)C(C)C)C(=O)O,conversion product with SPCFX,[1]; via an initial deacylation to ACV,penicillin N and isopenicillin N
same,cyclization of the peptide,[2]; procedures of Example 7,Cyclization was observed
CC[C@@H](NC(=O)[C@H](CSSC[C@H](NC(=O)CCC[C@H](N)C(=O)O)C(=O)N[C@H](CC)C(=O)O)NC(=O)CCC[C@H](N)C(=O)O)C(=O)O [(ACAB)2],formation of penicillinase-insensitive antibiotic,[3]; [6],do not form penicillinase-insensitive antibiotic
same,"Zone of Inhibition, E. coli Ess + penicillinase",[3]; [6],0 mm
same,"Zone of Inhibition, M. luteus",[4],8.0 mm
same,antibiotic activity equivalent to a solution of cephalosporin C against E. coli Ess,Escherichia coli Ess; cyclization reaction mixture,0.9 µg/mL
same,"Zone of Inhibition, E. coli Ess",Escherichia coli Ess; cyclization reaction mixture,12.5 mm
same,formation of antibiotic affecting E. coli Ess,Escherichia coli Ess; [6],nor do they form any antibiotic affecting E. coli Ess
same,"Zone of Inhibition, E. coli Ess",Escherichia coli Ess; [6],8.0 mm
CC[C@H](C)[C@@H](NC(=O)[C@H](CSSC[C@H](NC(=O)CCC[C@H](N)C(=O)O)C(=O)N[C@@H](C(=O)O)[C@@H](C)CC)NC(=O)CCC[C@H](N)C(=O)O)C(=O)O [(ACI)2],"antibiotic activity equivalent to a solution of cephalosporin C, E. coli Ess + penicillinase plates",[3]; [6],0.9 µg/mL
same,"Zone of Inhibition, E. coli Ess + penicillinase",[3]; [6],12.5 mm
same,"Zone of Inhibition, M. luteus",[4],13.0 mm
same,antibiotic activity equivalent to a solution of cephalosporin C against E. coli Ess,Escherichia coli Ess; cyclization reaction mixture,4.85 µg/mL
same,"Zone of Inhibition, E. coli Ess",Escherichia coli Ess; cyclization reaction mixture,20.0 mm
same,"Zone of Inhibition, E. coli Ess",Escherichia coli Ess; [6],20.0 mm
"CC(C)[C@@H](NC(=O)[C@H](CSSC[C@H](NC(=O)CCC[C@H](N)C(=O)O)C(=O)N[C@@H](C(=O)O)C(C)C)NC(=O)CCC[C@H](N)C(=O)O)C(=O)O [(ACV)2, bis-δ-(L-α-amino-adipyl-L-cysteinyl-D-valine)]","Cephalosporin C ""equivalents""",[3]; sample time 0 min,0
same,Zone of Inhibition,"[3]; sample time 0 min, 20 μl aliquot",0 mm
same,"Cephalosporin C ""equivalents""",[3]; sample time 15 min,.031 μm
same,Zone of Inhibition,[3]; sample time 15 min,15 mm
same,"Cephalosporin C ""equivalents""",[3]; sample time 30 min,.086 μm
same,Zone of Inhibition,[3]; sample time 30 min,19.5 mm
same,"Cephalosporin C ""equivalents""",[3]; sample time 45 min,.062 μm
same,Zone of Inhibition,[3]; sample time 45 min,18.5 mm
same,"Cephalosporin C ""equivalents""",[3]; sample time 60 min,.136 μm
same,Zone of Inhibition,[3]; sample time 60 min,21.5 mm
same,"Cephalosporin C ""equivalents""",[3]; sample time 75 min,.136 μm
same,Zone of Inhibition,[3]; sample time 75 min,21.5 mm
same,"antibiotic activity equivalent to a solution of cephalosporin C, E. coli Ess + penicillinase plates",[3]; [6],7.6 µg/mL
same,"Zone of Inhibition, E. coli Ess + penicillinase",[3]; [6],22 mm and 22.0 mm
same,"Zone of Inhibition, M. luteus",[4],29.0 mm
same,antibiotic activity equivalent to a solution of cephalosporin C against E. coli Ess,Escherichia coli Ess; cyclization reaction mixture,29.3 µg/mL
same,"Zone of Inhibition, E. coli Ess",Escherichia coli Ess; cyclization reaction mixture,28.0 mm
same,"Zone of Inhibition, E. coli Ess",Escherichia coli Ess; [6],28.5 mm
"CC(C)[C@@H](NC(=O)[C@H](CS)NC(=O)CCC[C@H](N)C(=O)O)C(=O)O [ACV, L-aminoadipyl-L-cysteinyl-D-valine]",ring expansion to a cephalosporin,[1]; [7],did not occur
same,conversion product,"[1]; mixture of the three enzymes, with 1 mM alpha-ketoglutarate",converted to desacetoxycephalosporin C
same,conversion product by bioassay and HPLC,[2]; [7],converted to a mixture of isopenicillin N and penicillin N
same,"conversion of ACV into a mixture of isopenicillin N, penicillin N, desacetoxycephalosporin C and desacetylcephalosporin C, by HPLC",[5],approximately 90%
CC(C)[C@@H](NC(=O)[C@H](CS)NC(=O)CCCCC(=O)O)C(=O)O [adipyl-containing peptide],cyclization of the peptide,[2]; procedures of Example 7,Cyclization was observed
same,"cyclization to the corresponding penicillin, carboxybutylpenicillin",[2]; procedures of Example 7,~20%
